Results: publication PMC7549214 (Malaria Journal, 2020)
Where two headings read alike, the source gives them in different places.

Tests used:
Plasma protein binding [1] = format: in vitro ADME; details: monkey, read-out: Plasma protein binding (% bound)
Plasma protein binding [2] = format: in vitro ADME; details: mouse, read-out: Plasma protein binding (% bound)
Plasma protein binding [3] = format: in vitro ADME; details: rat, read-out: Plasma protein binding (% bound)
Cam3.I (MRA1240) = test: microbe, parasite or virus in culture; format: cell-based; details: Plasmodium falciparum
CYP1A2 = CYP1A2 (Homo sapiens, UniProt P05177); test: CYP inhibition; format: in vitro ADME
Sequence of CYP1A2 (P05177 whole entry, species assumed): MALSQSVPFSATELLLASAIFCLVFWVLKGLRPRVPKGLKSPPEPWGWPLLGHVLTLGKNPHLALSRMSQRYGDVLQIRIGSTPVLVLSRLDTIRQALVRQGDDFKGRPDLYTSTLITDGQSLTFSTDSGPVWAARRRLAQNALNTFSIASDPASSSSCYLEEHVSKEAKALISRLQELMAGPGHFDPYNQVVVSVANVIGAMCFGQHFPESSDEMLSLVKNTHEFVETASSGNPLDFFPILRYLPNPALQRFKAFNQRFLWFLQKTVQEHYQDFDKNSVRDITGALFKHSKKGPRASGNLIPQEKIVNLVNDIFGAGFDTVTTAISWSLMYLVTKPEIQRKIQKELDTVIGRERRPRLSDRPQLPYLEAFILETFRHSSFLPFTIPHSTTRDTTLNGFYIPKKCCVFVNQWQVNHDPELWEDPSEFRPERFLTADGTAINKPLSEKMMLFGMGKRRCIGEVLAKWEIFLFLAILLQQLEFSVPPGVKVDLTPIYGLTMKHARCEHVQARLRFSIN

O=C(NO)c1ccc(Cn2cc(-c3ccc(CN4CCCC4)cc3)nn2)cc1 [FNDR-20123]
fraction unbound (Plasma protein binding [1]): > 0.8
fraction unbound (Plasma protein binding [2]): > 0.7
fraction unbound (Plasma protein binding [3]): 0.581
IC50 (Cam3.I (MRA1240)): 22.1 nM
IC50 (CYP1A2): > 60000 nM
